# Laboratory results taken from ChEMBL document CHEMBL1201862, “PubChem BioAssay data set” (2004).
#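 The compound was tested at five concentrations on cells cultured in 96-well plates, with a 48-hour exposure period. The concentration for 50% growth inhibition is given as GI50.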 The source made the active and inactive calls. Cut-off read from the data, not from the text of the source: active = GI50 up to about 1.1 µM and inactive = higher.
# Tests used:
# Test in all cases: NCI tumour cell line growth inhibition, 48 h
# KM12 = test system: KM12
# K562 = test system: K562
# Malme-3M = test system: Malme-3M
# M14 = test system: M14
# HOP-18 = test system: HOP-18
# HCT-15 = test system: HCT-15
# NCI-H522 = test system: NCI-H522
# 786-0 = test system: 786-0
# IGROV-1 = test system: IGROV-1
# SN12C = test system: SN12C
# OVCAR-4 = test system: OVCAR-4
# CCRF-CEM = test system: CCRF-CEM
# DMS-273 = test system: DMS-273
# TK-10 = test system: TK-10
# SK-MEL-2 = test system: SK-MEL-2
# SK-MEL-5 = test system: SK-MEL-5
# RPMI-8226 = test system: RPMI-8226
# UACC-257 = test system: UACC-257
# RXF 631 = test system: RXF 631
# NCI-H460 = test system: NCI-H460
# XF498 = test system: XF498
# UACC-62 = test system: UACC-62
# SF-539 = test system: SF-539
# EKVX = test system: EKVX
# SK-MEL-28 = test system: SK-MEL-28
# MOLT-4 = test system: MOLT-4
# A549 = test system: A549
# KM-20L2 = test system: KM-20L2
# HT-29 = test system: HT-29
# HL-60 = test system: HL-60
# SW-620 = test system: SW-620
# UO-31 = test system: UO-31
# NCI-H23 = test system: NCI-H23
# RXF 393 = test system: RXF 393
# HOP-62 = test system: HOP-62
# SF-295 = test system: SF-295
# NCI-H226 = test system: NCI-H226
# OVCAR-5 = test system: OVCAR-5
# SNB-75 = test system: SNB-75
# SNB-78 = test system: SNB-78
# M19-MEL = test system: M19-MEL
# ACHN = test system: ACHN
# CAKI-1 = test system: CAKI-1
# U-251 = test system: U-251
# OVCAR-3 = test system: OVCAR-3
# SNB-19 = test system: SNB-19
# OVCAR-8 = test system: OVCAR-8
# A498 = test system: A498
# SF-268 = test system: SF-268
# SK-OV-3 = test system: SK-OV-3
# HOP-92 = test system: HOP-92
# LXFL 529 = test system: LXFL 529
# COLO 205 = test system: COLO 205
# LOX IMVI = test system: LOX IMVI
# DMS-114 = test system: DMS-114
smiles,measurement,setting,value
C[C@]12C/C(=C/O)C(=O)C(O)=C1CC[C@@H]1C2CC[C@@]2(C)C1CC[C@@H]2O (stereo not given in full),GI50,KM12,25.6 µM (inactive)
same,GI50,K562,22.3 µM (inactive)
same,GI50,Malme-3M,20.8 µM (inactive)
same,GI50,M14,17.9 µM (inactive)
same,GI50,HOP-18,33.7 µM (inactive)
same,GI50,HCT-15,21.5 µM
same,GI50,NCI-H522,15.6 µM (inactive)
same,GI50,786-0,33.3 µM (inactive)
same,GI50,IGROV-1,21.7 µM (inactive)
same,GI50,SN12C,25.9 µM (inactive)
same,GI50,OVCAR-4,23.9 µM (inactive)
same,GI50,CCRF-CEM,18.4 µM (inactive)
same,GI50,DMS-273,23.5 µM (inactive)
same,GI50,TK-10,42.1 µM (inactive)
same,GI50,SK-MEL-2,19.9 µM (inactive)
same,GI50,SK-MEL-5,20.2 µM (inactive)
same,GI50,RPMI-8226,17.6 µM (inactive)
same,GI50,UACC-257,22.4 µM (inactive)
same,GI50,RXF 631,20.6 µM (inactive)
same,GI50,NCI-H460,21.8 µM (inactive)
same,GI50,XF498,17.6 µM (inactive)
same,GI50,UACC-62,16.5 µM (inactive)
same,GI50,SF-539,18.7 µM (inactive)
same,GI50,EKVX,26.3 µM (inactive)
same,GI50,SK-MEL-28,21.5 µM (inactive)
same,GI50,MOLT-4,26.4 µM (inactive)
same,GI50,A549,57.8 µM (inactive)
same,GI50,KM-20L2,22.6 µM (inactive)
same,GI50,HT-29,25.3 µM (inactive)
same,GI50,HL-60,17.3 µM (inactive)
same,GI50,SW-620,37 µM (inactive)
same,GI50,UO-31,16.3 µM (inactive)
same,GI50,NCI-H23,17.4 µM (inactive)
same,GI50,RXF 393,20.7 µM (inactive)
same,GI50,HOP-62,46.7 µM (inactive)
same,GI50,SF-295,26.7 µM (inactive)
same,GI50,NCI-H226,19.6 µM (inactive)
same,GI50,OVCAR-5,21 µM (inactive)
same,GI50,SNB-75,20.4 µM (inactive)
same,GI50,SNB-78,19.7 µM (inactive)
same,GI50,M19-MEL,21.2 µM (inactive)
same,GI50,ACHN,27.8 µM (inactive)
same,GI50,CAKI-1,26.1 µM (inactive)
same,GI50,U-251,> 10 µM (inactive)
same,GI50,OVCAR-3,17.9 µM (inactive)
same,GI50,SNB-19,18.3 µM (inactive)
same,GI50,OVCAR-8,27.1 µM (inactive)
same,GI50,A498,23.6 µM (inactive)
same,GI50,SF-268,24.5 µM (inactive)
same,GI50,SK-OV-3,27.5 µM (inactive)
same,GI50,HOP-92,23.1 µM (inactive)
same,GI50,LXFL 529,16.2 µM (inactive)
same,GI50,COLO 205,21.2 µM (inactive)
same,GI50,LOX IMVI,12 µM (inactive)
same,GI50,DMS-114,18.2 µM (inactive)
